From patent publication US12465618B2, “Compositions and methods for degenerative disc regeneration” (University Health Network, priority 2015, dated 2025) come the findings set out here.

For experiment [1], the system named is bovine degenerative disc NP cells. Nature of the experiment: MTT cell viability assay. Particulars: CTGF 100 ng/ml, TGFβ1 10 ng/ml, 48 hrs-72 hrs. The format is cell-based. How it is done: (§1) Nucleus pulposus cells (rat, bovine and human) were plated in 96-well flat bottom plates in order to evaluate the effect of treatment with growth factors in cell viability and proliferation assays. Rat NP cells were treated with CTGF, WISP-2 and TGFβ1 in a dose (1 ng/mL-100 ng/mL) and time dependent manner (24 hrs-96 hrs) to determine the optimum dose and time for the assessment of these growth factors on viability. Cell viability was determined using 3-(4,5-dimethylthiazol-2-yl)-2,5-diphenyltetrazolium bromide (MTT, Sigma-Aldrich, USA) as previously described^44. A BrdU-ELISA (colorimetric) assay (Cat #ab126556, Abcam) was used for determining the effect of treatment with CTGF or TGFβ1 on human and rat NP cells (healthy/injured) following the manufacturer's instructions. Briefly, NP cells were treated with CTGF or TGFβ1 alone or in combination for 48 hrs following addition of BrdU reagent O/N in each well. Incorporated BrdU in DNA of proliferating cells was determined using anti-BrdU antibody and quantified by ELISA as per the manufacturer's instructions.

In experiment [2] the test system is rat-tail disc NP cells (healthy/injured). The experiment can be described thus: MTT cell viability assay. The format is cell-based. The settings on record: CTGF 100 ng/ml, TGFβ1 10 ng/ml, 48 hrs-72 hrs. How it is done: as §1
For experiment [3], the system named is human degenerated disc NP cells. The experiment can be described thus: BrdU-ELISA cell proliferation assay. Format: cell-based. The settings on record: 72 hrs. How it is done: as §1
Experiment [4] relates to rat NP cells (healthy/injured). Nature of the experiment: BrdU-ELISA cell proliferation assay. The settings on record: rat-tail (healthy/injured) NP cells, 72 hrs. The format is cell-based. How it is done:
as §1

Experiment [5] has as its system human degenerative disc NP cells. The experiment can be described thus: qRT-PCR with gene specific primers. Particulars: human degenerated disc NP cells, real time PCR. Format: cell-based. How it is done: Total RNA from healthy and treated (IL-1β alone or in combination with TNFα) rat NP cells, were isolated using RNAeasy extraction kit (Cat #74134, Qiagen) and quantified using a Nanodrop spectrophotometer. Total RNA (˜400 ng) was reverse-transcribed using RT^2 First Strand Kit (Cat #330401, Qiagen) following the manufacturer's instructions for preparing cDNA. To evaluate the effect of IL-1β alone or in combination with TNFα on extra-cellular matrix (ECM) genes in rat NP cells, the RT^2 Profiler™ PCR Array Rat Extracellular Matrix & Adhesion Molecules (PARN-013Z, Qiagen) was used and compared with no treatment controls (NTC) in 3 independent experiments using real time PCR performed on ABI 7900HT 384-well Fast block machine. Data analysis including calculation of ΔΔCt values, fold changes and p-values was carried out using software available online (https://www.qiagen.com/ca). Total RNA was isolated from human degenerative disc NP cells (H1/H2) treated with CTGF, TGFβ1, CTGF+TGFβ1 to evaluate their effect on collagen 2, HAPLN1, versican and thrombospondin 1 using gene specific primers. Similarly, RNA was isolated from human NP cells were treated with […] alone or in combination TNFα in presence of CTGF and TGFβ1 to determine their effect on Cox2 and MMP-13 expression using qRT-PCR.

Experiment [6] concerns rat-tail injured disc NPs. The experiment can be described thus: Pre-clinical rodent needle puncture disc injury model of DDD, intra-discal injection. Format: in vivo, Wistar rat. How it is done: 12-week old female Wistar rats (Charles River Laboratories International, Inc., MA, USA) were used in order to develop a pre-clinical rodent model of DDD and to evaluate the therapeutic potential of NCCM, CTGF and TGFβ1 in these pre-clinical rodent models. Experiments were performed in accordance with the Guide for the Care and Use of Laboratory Animals, and the experimental protocols were approved by the ethics approval board of Toronto Western Hospital, Toronto, ON, Canada. The surgical procedure was as follows: Anesthesia was achieved using isofluorane (5 L/min plus 1 L/min O2) and maintained at 3 L/min. Once deeply anaesthetized, the animal was affixed on a stereotactic procedure apparatus (Model 900, Kopf Instruments California USA) with nose cone inhalation. For animal experiments, the tail was shaved and prepped with isopropanol in a sterile manner. Fluoroscopy was used to visualize needle penetration and to ensure that the needle penetrated into the center of the NP. For disc injury, a 26-gauge (G), 35° beveled, 0.75 inches high needle (Hamilton Company, USA) mounted on a Hamilton syringe was used. The needle was advanced completely through the selected tail IVD to penetrate the full thickness inclusive of the annulus fibrosus on both sides of the disc. Confirmation of needle placement was made using fluoroscopy and maintained in position for 2 minutes, withdrawn halfway to the center of the NP and left there for 1 minute and then slowly withdrawn completely over a 1-minute period. The animals were then removed from the stereotactic apparatus and allowed to recover in a warmed cage. At the end of study period i.e. 72 hrs-10 weeks, animals were humanely euthanized using CO2 and each vertebral lumbar/caudal motion segment was dissected aseptically. IVDs were either fixed in formalin for histological analysis or the nucleus pulposus (healthy/injured) was harvested and lysed in RIPA buffer (50 mM Tris, pH=7.4, 150 mM NaCl, 1% NP-40 and protease inhibitor cocktail) for western blotting.
To determine the regenerative potential of NCCM, CTGF or TGFβ1, 4 IVDs per animal of 12 week old rats were injured using a 26G needle as described above. Four weeks post-injury, animals were randomized into groups of six and an intra-discal injection (˜8 μL) of either NCCM, CTGF (100 ng/mL) or TGFβ1 (10 ng/mL) was given under local anesthesia. For NCCM injected animals, the control group consisted of animals that received an intra-discal injection (˜8 μL) of Hybridoma culture medium only, while phosphate buffered saline (PBS, 1×, pH=7.2) served as control for CTGF and TGFβ1 injected animal groups. Six weeks later, the NPs from injured and control discs were harvested and either fixed in formalin for histological analysis or lysed in RIPA lysis buffer for western blotting. Each of this experiment was repeated independently to ensure reproducibility.
The tissues were fixed in 10% formalin and decalcified in 10% EDTA solution. The decalcified disc was initially split in the mid sagittal plane, embedded in paraffin and 5p thick sections were obtained for histological evaluation. Hemaetoxylin and eosin (H&E) and Safranin-O staining was performed to assess general morphology and proteoglycan content in these tissue sections as previously described^16. For immunohistochemistry/immunofluorescence (IF), paraffin-embedded sections (5 μm) of human degenerative disc NP, bovine NP, healthy canines (NCD) and rat (healthy/injured) discs were deparaffinized in xylene, hydrated in gradient alcohol followed by antigen retrieval in Tris-EDTA buffer (pH=9.0). The sections were incubated with hydrogen peroxide (0.3% v/v) in methanol for 15 minutes to quench the endogenous peroxidase activity, followed by blocking with 10% serum to preclude non-specific binding. Thereafter, the slides were incubated with either rabbit or goat polyclonal/mouse monoclonal primary antibodies overnight (O/N) at 4° C. […]

The mark [7] stands for this setting: rat tail injured discs, western blots, FIG. 12(b).

For “TGFβ1: Human recombinant transforming growth factor beta 1, Peprotech cat #100-21, identified in NCCM”, the “cell viability (MTT)” value in experiment [1] and in experiment [2] was “increased the viability” throughout. Also, the “DNA synthesis (BrdU incorporation)” value in experiment [3] and in experiment [4] was “Significant increase” each time. Further, in experiment [5], the “mRNA levels of collagen 2, HAPLN1, versican and thrombospondin1 (THBS1)” value was “Increased mRNA levels”. Moreover, in experiment [6] (intra-discal injection four weeks following injury, 10 weeks post-injury, vs vehicle control), the “aggrecan and collagen II (immunohistochemical analysis)” value was “strong expression”. In addition, the “histological analysis, Safranin-O staining of NP” value in experiment [6] (intra-discal injection four weeks following injury, CTGF 100 ng/mL, TGFβ1 10 ng/mL, 10 weeks post-injury, vs PBS) is reported as “healthy disc, rich in NCs”. Besides, the “expression of MMP-13 and Cox2 in NP tissue lysates” value in experiment [6] (setting [7]) is on record as “decreased expression”. For the same substance, the “stem cell marker Oct4 in NP tissue lysates” value in experiment [6] (setting [7]) was “restoration”.
